Consider 34 molecules from patent US20070082880A1 (priority 2005, published 2007).

T1 sequence (Q04759 whole entry): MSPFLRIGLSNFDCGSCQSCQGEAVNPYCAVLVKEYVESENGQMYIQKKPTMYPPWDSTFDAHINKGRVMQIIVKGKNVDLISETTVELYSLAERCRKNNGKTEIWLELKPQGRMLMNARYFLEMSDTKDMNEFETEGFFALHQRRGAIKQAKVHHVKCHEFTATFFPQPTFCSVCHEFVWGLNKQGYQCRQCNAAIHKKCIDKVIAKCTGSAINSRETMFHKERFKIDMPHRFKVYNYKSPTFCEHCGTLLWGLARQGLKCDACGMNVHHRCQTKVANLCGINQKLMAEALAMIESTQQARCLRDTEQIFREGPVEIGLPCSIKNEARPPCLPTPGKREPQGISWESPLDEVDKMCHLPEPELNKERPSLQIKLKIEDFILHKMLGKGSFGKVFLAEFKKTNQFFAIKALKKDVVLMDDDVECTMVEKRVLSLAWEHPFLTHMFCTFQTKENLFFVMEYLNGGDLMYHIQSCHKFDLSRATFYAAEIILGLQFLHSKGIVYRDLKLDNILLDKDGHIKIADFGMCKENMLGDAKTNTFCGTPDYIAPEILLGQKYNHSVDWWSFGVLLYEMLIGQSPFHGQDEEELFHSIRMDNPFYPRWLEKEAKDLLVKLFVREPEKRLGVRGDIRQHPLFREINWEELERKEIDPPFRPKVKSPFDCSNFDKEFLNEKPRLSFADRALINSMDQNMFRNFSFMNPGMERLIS

The experiment has as its target T1, human PKCθ full length enzyme (Homo sapiens, UniProt Q04759).
T1 construct: human PKCθ full length enzyme (Panvera Catalog No. P2996); purchased Panvera P2996
As to the kind of experiment: PKCθ IMAP Assay. It counts as biochemical. The following applies: average value when one or more samples were tested; ATP 6 uM, PKCθ 1 nM. The method, boiled down:
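Full-length human PKCθ (1 nM final) with 6 uM ATP and 100 nM 5FAM-labelled peptide, 5% DMSO, 3.0 mM DTT in reaction buffer. 25 min at room temperature; IMAP bead binding 20 min, fluorescence polarization read. Compounds 2:1 serially diluted; no-ATP and no-enzyme wells as controls.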
In the case of `N#Cc1cnc2sc(/C=C/c3ccc(F)cc3)cc2c1Nc1ccc2[nH]ccc2c1` [Compound 401, 2-[(E)-2-(4-fluorophenyl)vinyl]-4-(1H-indol-5-ylamino)thieno[2,3-b]pyridine-5-carbonitrile], the IC50 worked out at 2450 nM.

Molecule `N#Cc1cnc2sc(/C=C/c3cccc(F)c3)cc2c1Nc1ccc2[nH]ccc2c1` [Compound 402, 2-[(E)-2-(3-fluorophenyl)vinyl]-4-(1H-indol-5-ylamino)thieno[2,3-b]pyridine-5-carbonitrile] showed an IC50 of 465 nM. Compared with the last molecule, the IC50 is about 5.3-fold lower.

`N#Cc1cnc2sc(/C=C/CCO)cc2c1Nc1ccc2[nH]ccc2c1` [Compound 403, 2-[(1E)-4-hydroxybut-1-en-1-yl]-4-(1H-indol-5-ylamino)thieno[2,3-b]pyridine-5-carbonitrile] displayed an IC50 of 394 nM.

As to `COc1cccc(/C=C/c2cc3c(Nc4ccc5[nH]ccc5c4)c(C#N)cnc3s2)c1` [Compound 404, 4-(1H-indol-5-ylamino)-2-[(E)-2-(3-methoxyphenyl)vinyl]thieno[2,3-b]pyridine-5-carbonitrile], the IC50 stood at 1140 nM.

`COc1ccc(/C=C/c2cc3c(Nc4ccc5[nH]ccc5c4)c(C#N)cnc3s2)cc1` [Compound 405, 4-(1H-indol-5-ylamino)-2-[(E)-2-(4-methoxyphenyl)vinyl]thieno[2,3-b]pyridine-5-carbonitrile]: half-maximal inhibition (IC50) was put at 477 nM.

`Cc1ccc(/C=C/c2cc3c(Nc4ccc5[nH]ccc5c4)c(C#N)cnc3s2)cc1` [Compound 406, 4-(1H-indol-5-ylamino)-2-[(E)-2-(4-methylphenyl)vinyl]thieno[2,3-b]pyridine-5-carbonitrile] had a 50% inhibitory concentration (IC50) of 12000 nM. Against the preceding molecule, the IC50 is about 25-fold higher.

In the case of `N#Cc1cnc2sc(/C=C/c3ccc(C(F)(F)F)cc3)cc2c1Nc1ccc2[nH]ccc2c1` [Compound 408, 4-(1H-indol-5-ylamino)-2-{(E)-2-[4-(trifluoromethyl)phenyl]vinyl}thieno[2,3-b]pyridine-5-carbonitrile], the half-maximal inhibitory concentration (IC50) is 23500 nM.

The molecule `N#Cc1cnc2sc(/C=C/Cc3ccccc3)cc2c1Nc1ccc2[nH]ccc2c1` [Compound 409, 4-(1H-indol-5-ylamino)-2-[(1E)-3-phenylprop-1-en-1-yl]thieno[2,3-b]pyridine-5-carbonitrile] came in with an IC50 of 3700 nM.

As to `C=C(c1ccccc1)c1cc2c(Nc3ccc4[nH]ccc4c3)c(C#N)cnc2s1` [Compound 410, 4-(1H-indol-5-ylamino)-2-(1-phenylvinyl)thieno[2,3-b]pyridine-5-carbonitrile], the IC50 was 1050 nM.

As to `CCCC/C=C/c1cc2c(Nc3ccc4[nH]ccc4c3)c(C#N)cnc2s1` [Compound 411, 2-[(1E)-hex-1-en-1-yl]-4-(1H-indol-5-ylamino)thieno[2,3-b]pyridine-5-carbonitrile], the half-inhibitory concentration (IC50) was determined as 2550 nM. This IC50 is about 2.4-fold higher than that of the molecule before.

As for `COC/C=C/c1cc2c(Nc3ccc4[nH]ccc4c3)c(C#N)cnc2s1` [Compound 412, 4-(1H-indol-5-ylamino)-2-[(1E)-3-methoxyprop-1-en-1-yl]thieno[2,3-b]pyridine-5-carbonitrile], the half-maximal inhibitory concentration (IC50) is 413 nM.

`Cc1c(Nc2c(C#N)cnc3sc(-c4ccc(S(N)(=O)=O)cc4)c(C)c23)ccc2[nH]ccc12` [Compound 413, 4-{5-cyano-3-methyl-4-[(4-methyl-1H-indol-5-yl)amino]thieno[2,3-b]pyridin-2-yl}benzenesulfonamide] gave a concentration for half-maximal inhibition (IC50) of 7 nM.

Consider `CNS(=O)(=O)c1ccc(-c2sc3ncc(C#N)c(Nc4ccc5[nH]ccc5c4C)c3c2C)cc1` [Compound 414, 4-{5-cyano-3-methyl-4-[(4-methyl-1H-indol-5-yl)amino]thieno[2,3-b]pyridin-2-yl}-N-methylbenzenesulfonamide], for which 29 nM corresponded to half-maximal inhibition (IC50).

`CNS(=O)(=O)c1ccc(-c2sc3ncc(C#N)c(Nc4ccc5[nH]ccc5c4)c3c2C)cc1` [Compound 415, 4-[5-cyano-4-(1H-indol-5-ylamino)-3-methylthieno[2,3-b]pyridin-2-yl]-N-methylbenzenesulfonamide] came in with a concentration for half-maximal inhibition (IC50) of 642 nM.

Consider `Cc1c(Nc2c(C#N)cnc3sc(/C=C/c4ccccc4)cc23)ccc2[nH]ccc12` [Compound 416, 4-[(4-methyl-1H-indol-5-yl)amino]-2-[(E)-2-phenylvinyl]thieno[2,3-b]pyridine-5-carbonitrile], for which the IC50 was 34 nM.

`C=Cc1cc2c(Nc3ccc4[nH]ccc4c3C)c(C#N)cnc2s1` [Compound 417, 4-[(4-methyl-1H-indol-5-yl)amino]-2-vinylthieno[2,3-b]pyridine-5-carbonitrile]: inhibition was half-maximal at 33 nM (IC50).

`Cc1c(Nc2c(C#N)cnc3sc(C4=CCN(C(=O)OC(C)(C)C)CC4)cc23)ccc2[nH]ccc12` [Compound 418, tert-butyl 4-{5-cyano-4-[(4-methyl-1H-indol-5-yl)amino]thieno[2,3-b]pyridin-2-yl}-5,6-dihydropyridine-1(2H)-carboxylate] yielded an IC50 of 100 nM.

`CC(C)(C)OC(=O)N1CC=C(c2cc3c(Nc4ccc5[nH]ccc5c4)c(C#N)cnc3s2)CC1` [Compound 419, tert-butyl 4-[5-cyano-4-(1H-indol-5-ylamino)thieno[2,3-b]pyridin-2-yl]-3,6-dihydropyridine-1(2H)-carboxylate] returned an IC50 of 954 nM.

`Cc1c(Nc2c(C#N)cnc3sc(/C=C/CCO)cc23)ccc2[nH]ccc12` [Compound 420, 2-[(1E)-4-hydroxybut-1-en-1-yl]-4-[(4-methyl-1H-indol-5-yl)amino]thieno[2,3-b]pyridine-5-carbonitrile] showed an IC50 of 14 nM.

As to `Cc1c(Nc2c(C#N)cnc3sc(C4=CCCCC4)cc23)ccc2[nH]ccc12` [Compound 421, 2-cyclohex-1-en-1-yl-4-[(4-methyl-1H-indol-5-yl)amino]thieno[2,3-b]pyridine-5-carbonitrile], the concentration for half-maximal inhibition (IC50) was 324 nM. This IC50 lies about 23-fold higher than the previous one.

The molecule `COC/C=C/c1cc2c(Nc3ccc4[nH]ccc4c3C)c(C#N)cnc2s1` [Compound 422, 2-[(1E)-3-methoxyprop-1-en-1-yl]-4-[(4-methyl-1H-indol-5-yl)amino]thieno[2,3-b]pyridine-5-carbonitrile] showed an IC50 of 69 nM. Compared with the last molecule, the IC50 is about 4.7-fold lower.

`Cc1c(Nc2c(C#N)cnc3sc(-c4cccc(C(=O)N5CCCC5)c4)cc23)ccc2[nH]ccc12` [Compound 423, 4-[(4-methyl-1H-indol-5-yl)amino]-2-[3-(pyrrolidin-1-ylcarbonyl)phenyl]thieno[2,3-b]pyridine-5-carbonitrile] gave a half-inhibitory concentration (IC50) of 58 nM.

Regarding `Cc1c(Nc2c(C#N)cnc3sc(-c4ccccc4)c(C)c23)ccc2[nH]ccc12` [Compound 424, 3-methyl-4-[(4-methyl-1H-indol-5-yl)amino]-2-phenylthieno[2,3-b]pyridine-5-carbonitrile], the half-inhibitory concentration (IC50) was 194 nM. Against the preceding molecule, the IC50 is about 3.3-fold higher.

For `Cc1c(Nc2c(C#N)cnc3sc(/C=C/c4ccccc4)c(C)c23)ccc2[nH]ccc12` [Compound 425, 3-methyl-4-[(4-methyl-1H-indol-5-yl)amino]-2-[(E)-2-phenylvinyl]thieno[2,3-b]pyridine-5-carbonitrile], half-maximal inhibition (IC50) was put at 95 nM.

As to `Cc1c(Nc2c(C#N)cnc3sc(-c4cccc(NS(C)(=O)=O)c4)c(C)c23)ccc2[nH]ccc12` [Compound 426, N-(3-{5-cyano-3-methyl-4-[(4-methyl-1H-indol-5-yl)amino]thieno[2,3-b]pyridin-2-yl}phenyl)methanesulfonamide], the midpoint of inhibition, the IC50, lay at 119 nM.

As to `Cc1c(Nc2c(C#N)cnc3sc(-c4cccc(S(N)(=O)=O)c4)c(C)c23)ccc2[nH]ccc12` [Compound 427, 3-{5-cyano-3-methyl-4-[(4-methyl-1H-indol-5-yl)amino]thieno[2,3-b]pyridin-2-yl}benzenesulfonamide], the IC50 is 34 nM.

Molecule `CNS(=O)(=O)c1cccc(-c2sc3ncc(C#N)c(Nc4ccc5[nH]ccc5c4C)c3c2C)c1` [Compound 428, 3-{5-cyano-3-methyl-4-[(4-methyl-1H-indol-5-yl)amino]thieno[2,3-b]pyridin-2-yl}-N-methylbenzenesulfonamide] returned an IC50 of 60 nM.

In turn, `Cc1c(Nc2c(C#N)cnc3sc(-c4cccc(C(=O)NCCN(C)C)c4)c(C)c23)ccc2[nH]ccc12` [Compound 429, 3-{5-cyano-3-methyl-4-[(4-methyl-1H-indol-5-yl)amino]thieno[2,3-b]pyridin-2-yl}-N-[2-(dimethylamino)ethyl]benzamide] came in with a 50% inhibitory concentration (IC50) of 60 nM. This counts as double-digit nanomolar.

For `Cc1c(Nc2c(C#N)cnc3sc(-c4ccc(C(=O)NCCN(C)C)cc4)c(C)c23)ccc2[nH]ccc12` [Compound 430, 4-{5-cyano-3-methyl-4-[(4-methyl-1H-indol-5-yl)amino]thieno[2,3-b]pyridin-2-yl}-N-[2-(dimethylamino)ethyl]benzamide], 116 nM corresponded to half-maximal inhibition (IC50).

Consider `Cc1c(Nc2c(C#N)cnc3sc(-c4ccc(S(=O)(=O)NCCO)cc4)c(C)c23)ccc2[nH]ccc12` [Compound 431, 4-{5-cyano-3-methyl-4-[(4-methyl-1H-indol-5-yl)amino]thieno[2,3-b]pyridin-2-yl}-N-(2-hydroxyethyl)benzenesulfonamide], for which the IC50 was found to be 110 nM.

The molecule `Cc1c(Nc2c(C#N)cnc3sc(-c4nccn4C)cc23)ccc2[nH]ccc12` [Compound 432, 2-(1-methyl-1H-imidazol-2-yl)-4-[(4-methyl-1H-indol-5-yl)amino]thieno[2,3-b]pyridine-5-carbonitrile] gave an IC50 of 49 nM.

For `Cn1ccnc1-c1cc2c(Nc3ccc4[nH]ccc4c3)c(C#N)cnc2s1` [Compound 433, 4-(1H-indol-5-ylamino)-2-(1-methyl-1H-imidazol-2-yl)thieno[2,3-b]pyridine-5-carbonitrile], the midpoint of inhibition, the IC50, lay at 527 nM.

Take `Cc1c(Nc2c(C#N)cnc3sc(-c4cc5ccccc5[nH]4)cc23)ccc2[nH]ccc12` [Compound 434, 2-(1H-indol-2-yl)-4-[(4-methyl-1H-indol-5-yl)amino]thieno[2,3-b]pyridine-5-carbonitrile]: the midpoint of inhibition, the IC50, lay at 70 nM.

In the case of `CC(=O)Nc1ccccc1-c1cc2c(Nc3ccc4[nH]ccc4c3C)c(C#N)cnc2s1` [Compound 435, N-(2-{5-cyano-4-[(4-methyl-1H-indol-5-yl)amino]thieno[2,3-b]pyridin-2-yl}phenyl)acetamide], half-maximal inhibition (IC50) required 282 nM.
